Laboratory results from the NIST ThermoML archive (doi:10.1021/je900744x).
Numbers after ± are expanded uncertainties.

Details: Liquid, Closed cell (Static) method

Row | SMILES | vapor or sublimation pressure (254.31 K) [kPa] | vapor or sublimation pressure (259.27 K) [kPa] | vapor or sublimation pressure (269.26 K) [kPa] | vapor or sublimation pressure (279.47 K) [kPa] | vapor or sublimation pressure (287.94 K) [kPa]
1 | CC(F)F [1,1-difluoroethane] | 127 ± 10 | 156 ± 10 | 231 ± 10 | 331 ± 10 | 437 ± 10
2 | CCC [propane] | 257 ± 10 | 303 ± 10 | 422 ± 10 | 574 ± 10 | 727 ± 10
